The values below come from PubChem BioAssay (NCI).

Some test systems named below: BT-549 breast; DU-145 prostate; MOLT-4 leukemia; NCI-H522 lung; RPMI-8226 leukemia; SK-MEL-2 melanoma; SNB-75 CNS; T-47D breast; UACC-62 melanoma; UO-31 renal.
Holding throughout (test): NCI-60 cell line screen, 48 h

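How tested: cells in 96-well plates exposed to compound for 48 hours at five concentrations. TGI: total growth inhibition.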

As to `COc1ccc(N2CN(C)CSC2=S)cc1`, the TGI in the assay with BT-549 breast, in the assay on DU-145 prostate, in the assay on MOLT-4 leukemia, in the assay on NCI-H522 lung, with RPMI-8226 leukemia and in the assay with SK-MEL-2 melanoma was > 100 µM throughout. Besides, the TGI in the assay with SNB-75 CNS, in the assay on T-47D breast, with UACC-62 melanoma and in the assay with UO-31 renal was > 100 µM each time.
`CC(C)(C)c1cc(C(=O)C2Cc3ccccc3C(=O)O2)cc(C(C)(C)C)c1O` (stereo not drawn): the TGI was 42.6 µM in the assay with BT-549 breast; 28.3 µM in the assay with DU-145 prostate; > 100 µM in the assay with MOLT-4 leukemia; 27.8 µM in the assay on NCI-H522 lung; 42.1 µM in the assay with RPMI-8226 leukemia; 23.9 µM in the assay with SK-MEL-2 melanoma. The TGI in the assay on SNB-75 CNS was 33.8 µM; in the assay with T-47D breast, > 100 µM; in the assay with UACC-62 melanoma, 26.3 µM; in the assay with UO-31 renal, 23.2 µM.
As for `O=C(OCC1CCCN2CCCCC12)c1cccnc1` (stereo not drawn), the TGI in the assay with BT-549 breast, with DU-145 prostate, in the assay on MOLT-4 leukemia, in the assay with RPMI-8226 leukemia, in the assay with SK-MEL-2 melanoma and in the assay with SNB-75 CNS was > 100 µM in each case. The TGI in the assay with T-47D breast, in the assay with UACC-62 melanoma and in the assay on UO-31 renal was > 100 µM in each case.
With `Nc1ncnc2c1ncn2C1OC(CO)C(O)C1NS(=O)(=O)c1ccccc1` (stereo not drawn), the TGI in the assay on BT-549 breast, with DU-145 prostate, with MOLT-4 leukemia, in the assay with NCI-H522 lung, in the assay with RPMI-8226 leukemia and in the assay with SK-MEL-2 melanoma was > 100 µM in each case. The TGI in the assay with SNB-75 CNS, in the assay with T-47D breast, in the assay with UACC-62 melanoma and in the assay with UO-31 renal was > 100 µM each time.
Turning to `COc1ccc(C(=O)c2c(-c3ccccc3NC(=O)C(F)(F)F)[nH]c3ccccc23)cc1`, the TGI in the assay on BT-549 breast came out at 29 µM; in the assay on DU-145 prostate it was 17 µM; in the assay with MOLT-4 leukemia, 10.6 µM; in the assay on NCI-H522 lung, 22.8 µM; in the assay with RPMI-8226 leukemia, 27.2 µM; in the assay on SK-MEL-2 melanoma it was 14.9 µM. In addition, the TGI was 7.89 µM in the assay on SNB-75 CNS, 9.05 µM in the assay on T-47D breast, 25.8 µM in the assay with UACC-62 melanoma and 19.4 µM in the assay on UO-31 renal.
In the case of `N/C(=N\S(=O)(=O)c1ccc(-c2ccccn2)s1)Nc1ccc(Cl)cc1`, the TGI in the assay on BT-549 breast is 32.6 µM; in the assay with DU-145 prostate, 34.3 µM; in the assay on MOLT-4 leukemia, 5.61 µM; with NCI-H522 lung, 24.4 µM; in the assay with RPMI-8226 leukemia it was 84.5 µM; in the assay with SK-MEL-2 melanoma, 27.4 µM. Also, the TGI with SNB-75 CNS was found to be 45.7 µM; with T-47D breast it was 45.6 µM; in the assay on UACC-62 melanoma, 26.4 µM; in the assay on UO-31 renal, 34.9 µM.
For `CC(=O)NNC(=S)/N=C\c1c(O)c2ccccc2oc1=O`, the TGI with BT-549 breast, with DU-145 prostate, in the assay with MOLT-4 leukemia, in the assay on NCI-H522 lung, with RPMI-8226 leukemia and in the assay with SK-MEL-2 melanoma was > 100 µM throughout. Besides, the TGI in the assay with SNB-75 CNS, in the assay on T-47D breast, in the assay on UACC-62 melanoma and in the assay on UO-31 renal was > 100 µM throughout.
On to `Oc1cc(O)c2c(c1)O[C@H](c1cc(O)c(O)c(O)c1)[C@@H](O)C2`, for which the TGI in the assay on BT-549 breast is 51.5 µM; in the assay with DU-145 prostate, > 100 µM; with MOLT-4 leukemia, > 10 µM; in the assay on NCI-H522 lung it was 35.1 µM; with RPMI-8226 leukemia, 43.9 µM; in the assay with SK-MEL-2 melanoma, 64.8 µM. Also, the TGI was 38.7 µM in the assay with SNB-75 CNS, 68.7 µM in the assay on T-47D breast and 35.9 µM in the assay with UO-31 renal.
Regarding `CC(C)NCC(O)c1ccc(O)c2ncccc12` (stereo not drawn), the TGI was > 100 µM in the assay on BT-549 breast; > 100 µM in the assay with DU-145 prostate; 46.9 µM in the assay on MOLT-4 leukemia; > 100 µM with NCI-H522 lung; > 100 µM in the assay with RPMI-8226 leukemia; > 100 µM in the assay with SK-MEL-2 melanoma. The TGI with SNB-75 CNS, in the assay on T-47D breast, with UACC-62 melanoma and in the assay on UO-31 renal was > 100 µM throughout.
Turning to `Oc1cc(Cl)cc2cc(Cl)cnc12`, the TGI was > 100 µM in the assay with BT-549 breast; > 100 µM in the assay with DU-145 prostate; 11.5 µM in the assay with MOLT-4 leukemia; 24.3 µM in the assay with NCI-H522 lung; 12.2 µM in the assay on RPMI-8226 leukemia; 94 µM in the assay with SNB-75 CNS. Moreover, the figures for the TGI in the assay on T-47D breast, in the assay with UACC-62 melanoma and in the assay on UO-31 renal were 9.95 µM, 7.81 µM and 20.5 µM, respectively.
For `O=C(/C=C/c1ccc2c(c1)OCO2)NCCc1ccco1`, the TGI in the assay on BT-549 breast is > 100 µM; with DU-145 prostate, > 100 µM; in the assay on MOLT-4 leukemia, > 100 µM; in the assay with NCI-H522 lung, 79.7 µM; with RPMI-8226 leukemia, 99.1 µM; in the assay with SK-MEL-2 melanoma it was > 100 µM. The TGI in the assay with SNB-75 CNS, with T-47D breast, with UACC-62 melanoma and in the assay on UO-31 renal was > 100 µM each time.
For `N#CCCN(CCC#N)c1ccc(/C=C2\SC(=S)NC2=O)cc1`, the TGI with BT-549 breast is 84.3 µM; in the assay on DU-145 prostate, > 100 µM; in the assay with MOLT-4 leukemia it was > 100 µM; in the assay on NCI-H522 lung, > 100 µM; in the assay with RPMI-8226 leukemia, > 100 µM; with SK-MEL-2 melanoma, > 100 µM. The TGI in the assay on SNB-75 CNS, in the assay with T-47D breast, in the assay on UACC-62 melanoma and in the assay with UO-31 renal was > 100 µM in each case.
On to `Cn1c(=O)c2c(nc3n2CCC(=O)N3CCCCl)n(C)c1=O`, for which the TGI in the assay on BT-549 breast, in the assay with DU-145 prostate, in the assay on MOLT-4 leukemia, in the assay on RPMI-8226 leukemia, in the assay with SK-MEL-2 melanoma and in the assay with SNB-75 CNS was > 100 µM throughout. Further, the TGI with T-47D breast, in the assay with UACC-62 melanoma and with UO-31 renal was > 100 µM in each case.
As for `N/C(=N\NC(=O)c1nc2ccccc2s1)c1ccccn1`, the TGI was > 100 µM in the assay on BT-549 breast; > 40.2 µM with DU-145 prostate; 18.7 µM in the assay on MOLT-4 leukemia; 44.6 µM in the assay with NCI-H522 lung; 26.8 µM in the assay with RPMI-8226 leukemia; > 100 µM in the assay with SK-MEL-2 melanoma. The TGI in the assay with SNB-75 CNS was > 45.1 µM; in the assay with T-47D breast, > 100 µM; with UACC-62 melanoma it was 19.5 µM; in the assay on UO-31 renal, 15.8 µM.
On to `C[C@@H](NC(=O)[C@@H]1C[C@]1(C)CO)c1cccc2ccccc12`, for which the TGI with BT-549 breast, in the assay on DU-145 prostate, with MOLT-4 leukemia, with RPMI-8226 leukemia, with SK-MEL-2 melanoma and in the assay on SNB-75 CNS was > 100 µM in each case. In addition, the TGI in the assay on T-47D breast, with UACC-62 melanoma and in the assay on UO-31 renal was > 100 µM each time.
`O=C1CCCCC/C1=C\c1cccc([N+](=O)[O-])c1`: the TGI with BT-549 breast is 72.8 µM; in the assay on DU-145 prostate, > 100 µM; in the assay on MOLT-4 leukemia it was 83.5 µM; in the assay with RPMI-8226 leukemia, 78.1 µM; in the assay on SK-MEL-2 melanoma, > 100 µM; with SNB-75 CNS it was > 100 µM. The TGI with T-47D breast is > 100 µM; in the assay with UACC-62 melanoma, 67.6 µM; in the assay with UO-31 renal it was 80.1 µM.
Regarding `Cc1nc2ccccc2c(=O)n1NC(=O)c1ccccc1[N+](=O)[O-]`, the TGI with BT-549 breast, in the assay on DU-145 prostate, with MOLT-4 leukemia, with NCI-H522 lung, in the assay on RPMI-8226 leukemia and with SNB-75 CNS was > 100 µM throughout. Moreover, the TGI in the assay on T-47D breast, with UACC-62 melanoma and in the assay on UO-31 renal was > 100 µM in each case.
As to `Nc1nc(Nc2ccc(Cl)cc2)sc1C(=O)c1c[nH]c2ccccc12`, the TGI is 34 µM with BT-549 breast; 38.9 µM with DU-145 prostate; > 100 µM in the assay on RPMI-8226 leukemia; 28.4 µM in the assay on SK-MEL-2 melanoma; 24.3 µM in the assay on SNB-75 CNS; 92.3 µM in the assay on T-47D breast. The results for the TGI in the assay on UACC-62 melanoma and with UO-31 renal were 28 µM and 34.2 µM, respectively.
For `COC(=O)[C@H]1[C@@H](O)[C@@]2(O)c3c(OC)cc(OC)cc3O[C@@]2(c2ccc3c(c2)OCO3)[C@@H]1c1ccccc1`, the TGI is > 50 µM in the assay with BT-549 breast; 4.51 µM with DU-145 prostate; 0.0482 µM in the assay on MOLT-4 leukemia; 0.741 µM in the assay on NCI-H522 lung; 0.0492 µM in the assay on RPMI-8226 leukemia; 0.45 µM in the assay with SK-MEL-2 melanoma. The TGI in the assay on T-47D breast is > 10.8 µM; with UACC-62 melanoma, > 50 µM; with UO-31 renal it was 0.0223 µM.
As for `CNC(=O)c1cc2nc3ccccc3c(=O)n2c2ccccc12`, the TGI in the assay with BT-549 breast, with DU-145 prostate, with MOLT-4 leukemia, in the assay with NCI-H522 lung, with RPMI-8226 leukemia and in the assay on SK-MEL-2 melanoma was > 10 µM throughout. The TGI with T-47D breast, with UACC-62 melanoma and with UO-31 renal was > 10 µM each time.
With `COc1cc(OCc2nc3cc(C(F)(F)F)ccc3nc2-c2ccccc2)cc(OC)c1OC`, the TGI in the assay on BT-549 breast, with DU-145 prostate, in the assay with MOLT-4 leukemia, in the assay on RPMI-8226 leukemia, in the assay with SK-MEL-2 melanoma and in the assay on SNB-75 CNS was > 100 µM each time. Besides, the TGI in the assay on T-47D breast, in the assay with UACC-62 melanoma and with UO-31 renal was > 100 µM each time.
